In test [1] the target is T1, SAP (Homo sapiens, UniProt P02743). As to the kind of experiment: Lead identification: inhibition of ligand binding by SAP (SAP binding to amyloid fibrils, high throughput screening). Conditions: compared with the original hit Ro-15-3479. The text has this: The compounds tested in the experiment shown here were a family of molecules developed as inhibitors of SAP binding to amyloid fibrils, following identification of an initial lead molecule during high throughput screening of a large compound library according to U.S. Pat. No. 6,126,918. […] A chemistry programme then produced, (R)-1-[6-(R)-2-Carboxy-pyrrolidin-1-yl]-6-oxo-hexanoyl]pyrrolidine-2-carboxylic acid (Ro-63-8695) (Example 8b of EP-A-915088) and a family of related molecules, that were tested here.

In test [2] the target is T1, SAP. The experiment in a line: Inhibition of binding of 125I radiolabelled SAP to influenza virus immobilized in microtitre plates. The arrangement: 5 μl of radiolabelled SAP in TN; from tissue. Conditions: read-out: Percent inhibition of binding of radiolabelled SAP to immobilized influenza virus.
Test [3] concerns the target T1, SAP. As to the kind of experiment: Inhibition of binding of 125I radiolabelled SAP to native long chromatin immobilized in microtitre plates. The arrangement: 5 μl of radiolabelled SAP in TN; from tissue. Conditions: read-out: Percent inhibition of binding of radiolabelled SAP to immobilized native long chromatin.
Test [4] deals with T1, SAP. The experiment in a line: Inhibition of binding of 125I radiolabelled SAP to Neisseria meningitidis immobilized in microtitre plates. The arrangement: 5 μl of radiolabelled SAP in TN; from tissue. Conditions: read-out: Percent inhibition of binding of radiolabelled SAP to immobilized Neisseria meningitidis.

T1 sequence (P02743 20-223): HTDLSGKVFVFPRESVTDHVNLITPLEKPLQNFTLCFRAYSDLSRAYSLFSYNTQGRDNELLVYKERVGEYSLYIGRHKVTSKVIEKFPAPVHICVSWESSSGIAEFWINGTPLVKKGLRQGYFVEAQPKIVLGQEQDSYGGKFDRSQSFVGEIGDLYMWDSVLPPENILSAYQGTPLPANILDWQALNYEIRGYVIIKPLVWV

In the case of `C[C@H](CSSC[C@@H](C)C(=O)N1CCC[C@@H]1C(=O)O)C(=O)N1CCC[C@@H]1C(=O)O` [Ro-63-3300, (R)-1-[(S)-3-[(S)-3-[(R)-2-carboxy-pyrrolidin-1-yl]-2-methyl-3-oxo-propyldisulfanyl]-2-methyl-propionyl]-pyrrolidine-2-carboxylic acid], at SAP [1], the “Inhibition of ligand binding by SAP, in words” value was “much more potent”. Also, the inhibition at 0.2 µM came out at 47% on SAP [2] (compound 200 nM), 3% on SAP [3] (compound 200 nM) and 28% on SAP [4] (compound 200 nM). In addition, the inhibition at 2 µM at SAP [2] (compound 2 μM) was 78%; on SAP [3] (compound 2 μM), 34%; on SAP [4] (compound 2 μM), 68%. Also, the inhibition at 20 µM on SAP [2] (compound 20 μM) came to 90%; on SAP [3] (compound 20 μM), 69%; at SAP [4] (compound 20 μM) it was 73%. In addition, the inhibition at 200 µM at SAP [2] (compound 200 μM) is 91%; at SAP [3] (compound 200 μM), 88%. Besides, the inhibition at 2000 µM worked out at 91% on SAP [2] (compound 2 mM), 99% at SAP [3] (compound 2 mM) and 100% on SAP [4] (compound 2 mM).
